Experimental data: patent US10485797B2, “Treatment of pemphigus” (Principia Biopharma Inc., priority 2014, dated 2019)
Read-outs that look alike come from different tables or passages of the source.

Experiments:
pemphigus folliaceus = assay: Dog Pemphigus Foliaceus Study; format: in vivo; conditions: for overall efficacy and safety in treatment of PF: single agent
Protocol: A 30 kg Doberman dog with a characteristic first presentation of pemphigus folliaceus on the nose and paws was administered an oral dose of 500 mg daily of the BTK inhibitor (R,E)-2-(3-(4-amino-3-(2-fluoro-4-phenoxyphenyl)-1H-pyrazolo[3,4-d]-pyrimidin-1-yl)piperidine-1-carbonyl)-4,4-dimethylpent-2-enenitrile instead of the usual treatment for pemphigus of high dose corticosteroids (typically 1-2 mg/kg).
The dog responded clinically to the drug as a monotherapy within three days, with improved eating and ambulation noted by the owner.

BTK = target: T1, BTK (Canis lupus familiaris, UniProt A0A8I3P3Z9); assay: BTK occupancy in blood of the treated dog; format: in vivo; conditions: 30 kg Doberman dog, oral 500 mg daily; blood taken 24 hours after the first dose; read-out: level of BTK occupancy 24 hours after each dose
T1 construct: from tissue; host or cells: blood of the treated Doberman dog
T1 sequence (A0A8I3P3Z9 1-664): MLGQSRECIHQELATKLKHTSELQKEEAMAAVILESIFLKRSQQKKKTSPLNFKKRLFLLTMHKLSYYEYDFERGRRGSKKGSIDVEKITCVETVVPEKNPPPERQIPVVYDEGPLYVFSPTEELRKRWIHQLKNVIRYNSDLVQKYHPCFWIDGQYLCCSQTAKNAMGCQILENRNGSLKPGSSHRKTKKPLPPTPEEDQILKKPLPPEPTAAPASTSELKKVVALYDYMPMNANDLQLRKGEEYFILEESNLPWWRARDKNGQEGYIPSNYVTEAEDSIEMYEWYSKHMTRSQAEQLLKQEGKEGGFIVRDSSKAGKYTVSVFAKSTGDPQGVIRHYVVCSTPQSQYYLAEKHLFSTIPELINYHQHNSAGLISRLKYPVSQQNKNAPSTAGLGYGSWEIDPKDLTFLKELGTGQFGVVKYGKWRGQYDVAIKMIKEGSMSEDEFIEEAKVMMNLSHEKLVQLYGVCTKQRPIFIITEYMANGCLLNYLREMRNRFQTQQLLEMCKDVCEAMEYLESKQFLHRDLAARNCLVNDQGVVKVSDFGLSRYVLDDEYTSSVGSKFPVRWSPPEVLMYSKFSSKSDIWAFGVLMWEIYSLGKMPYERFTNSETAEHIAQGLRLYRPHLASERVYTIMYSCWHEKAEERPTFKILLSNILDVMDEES

[1] = cited from earlier work
[2] = ANCA-associated vasculitis, cited from earlier work
[3] = cited from earlier work; for onset of effect / clinical response / time of maximal effect: pemphigus vulgaris

## CC(C)(C)/C=C(\C#N)C(=O)N1CCC[C@@H](n2nc(-c3ccc(Oc4ccccc4)cc3F)c3c(N)ncnc32)C1 [(R,E)-2-(3-(4-amino-3-(2-fluoro-4-phenoxyphenyl)-1H-pyrazolo[3,4-d]-pyrimidin-1-yl)piperidine-1-carbonyl)-4,4-dimethylpent-2-enenitrile]
Pemphigus folliaceus; dog PF
  manifestation of clinical response compared with systemic corticosteroid therapy: as rapid and comparable to that observed with systemic corticosteroid therapy
Pemphigus folliaceus; dog PF, oral 500 mg daily
  corticosteroid-like adverse effects (polyuria, polydipsia, polyphagia or weight gain): none and No well-known corticosteroid-like adverse effects
Pemphigus folliaceus; dog PF, oral 500 mg daily, four weeks
  skin lesions by four weeks: completely healed
Pemphigus folliaceus; dog PF, oral 500 mg daily, monotherapy
  time to clinical response (improved eating and ambulation): three
Pemphigus folliaceus; dog PF, oral 500 mg daily, one week
  clinical status at one week follow up visit: improved general health and commencement of pemphigus lesion healing
Pemphigus folliaceus; dog PF, oral 500 mg daily, two weeks
  clinical status after two weeks of treatment: general health of the dog was excellent and skin lesions continued to improve
Pemphigus folliaceus
  overall efficacy and safety in treatment of PF: effective and safe
Pemphigus folliaceus; listed as (R, E)-2-(3-(4-amino-3-(2-fluoro-4-phenoxyphenyl)-1H-pyrazolo[3,4-d]-pyrimidin-1))
  overall efficacy and safety in treatment of PF: rapidly control dog PF
BTK
  receptor occupancy at 500 mg: ~70%

## Belimumab: an anti-Blys antibody
[1]; chronic SLE, week 40-52
  patients able to reduce corticosteroid use to <7.5 mg of prednisone: ≤ 21% of patients (Benlysta US Product
[1]
  effect on improvement of chronic SLE: modest and delayed effect on improvement

## Rituximab: anti-CD20 antibody rituximab, approved for treatment of B cell malignancies
[2]; despite concomitant use of corticosteroids for 5 months
  cases achieving remission: in only 64% of cases despite concomitant use
[2]
  onset of effect: Rituximab has delayed effect in ANCA-
[3]; patients treated with rituximab
  side effects in treated patients: serious side effects such as pneumonia
[3]
  onset of effect / clinical response: Rituximab has delayed effect in pemphigus
  time of maximal effect: vulgaris with maximal effect at 8-12 weeks
[3]; listed as rituximab
  onset of effect / clinical response: significant delay in clinical response
  time of maximal effect: 8-12 weeks
